pIC50: −log10 of the molar value.
Target: T1, Neutrophil elastase (Homo sapiens, UniProt P08246)
T1 sequence (P08246 whole entry): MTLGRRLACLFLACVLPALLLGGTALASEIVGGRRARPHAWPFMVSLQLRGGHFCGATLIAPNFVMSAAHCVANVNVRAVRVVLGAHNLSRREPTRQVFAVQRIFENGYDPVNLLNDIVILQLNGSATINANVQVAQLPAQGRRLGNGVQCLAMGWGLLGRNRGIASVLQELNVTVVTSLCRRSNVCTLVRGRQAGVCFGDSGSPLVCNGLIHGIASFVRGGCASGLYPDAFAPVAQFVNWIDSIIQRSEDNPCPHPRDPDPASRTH
Experiment: Inhibitory activity against human sputum elastase (HSE)

| pIC50 | Structure (SMILES) |
| --- | --- |
| 7.13 | CO[C@H]1C(=O)N2C(C(=O)OC(C)(C)C)=C(C)C(=C(SC)SC)S(=O)(=O)C12 (stereo not given in full) |
| 5.74 | CO[C@H]1C(=O)N2C(C(=O)OC(C)(C)C)=C(C)CS(=O)(=O)C12 (stereo not given in full) |
| 6.48 | CO[C@H]1C(=O)N2C(C(=O)OC(C)(C)C)=C(C)C(=C3SCC(O)CS3)S(=O)(=O)C12 (stereo not given in full) |
| 6.42 | CO[C@H]1C(=O)N2C(C(=O)OC(C)(C)C)=C(C)C(=C3SCCS3)S(=O)(=O)C12 (stereo not given in full) |
| 6.49 | CO[C@H]1C(=O)N2C(C(=O)OC(C)(C)C)=C(C)C(=C3SCC(OC(C)=O)CS3)S(=O)(=O)C12 (stereo not given in full) |

— ChEMBL document CHEMBL1149927, “Synthesis of 7-methoxy-2-(1,3-dithiolan-2-ylidene)cephem sulphones. A new series of human leukocyte elastase inhibitors” (Bioorg Med Chem Lett, 1996)
